In ChEMBL document CHEMBL4433197, “Nuclear Factor Erythroid 2-Related Factor 2 (Nrf2) Inhibition: An Emerging Strategy in Cancer Therapy” (J Med Chem, 2019):

Target: T1, Nuclear factor erythroid 2-related factor 2 (Mus musculus, UniProt Q60795)
T1 sequence (Q60795 whole entry): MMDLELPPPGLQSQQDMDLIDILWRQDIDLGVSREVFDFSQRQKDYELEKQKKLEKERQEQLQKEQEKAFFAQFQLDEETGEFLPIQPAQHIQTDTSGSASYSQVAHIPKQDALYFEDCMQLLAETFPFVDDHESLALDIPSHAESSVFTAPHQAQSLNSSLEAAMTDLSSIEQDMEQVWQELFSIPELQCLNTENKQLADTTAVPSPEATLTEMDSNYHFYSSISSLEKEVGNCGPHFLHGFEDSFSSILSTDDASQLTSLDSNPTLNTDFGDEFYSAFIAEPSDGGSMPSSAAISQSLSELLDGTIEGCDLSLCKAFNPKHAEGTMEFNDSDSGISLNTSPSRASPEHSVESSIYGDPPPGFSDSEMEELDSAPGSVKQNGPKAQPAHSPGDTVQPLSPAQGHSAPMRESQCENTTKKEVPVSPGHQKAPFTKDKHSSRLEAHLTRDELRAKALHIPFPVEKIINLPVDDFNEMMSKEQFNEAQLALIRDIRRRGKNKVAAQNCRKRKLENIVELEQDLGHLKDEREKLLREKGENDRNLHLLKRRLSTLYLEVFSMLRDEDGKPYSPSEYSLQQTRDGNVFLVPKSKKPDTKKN
Experiment: Inhibition of Nrf2 in mouse MYC-3T3-ARELUC cells harboring a stably integrated ARE by firefly luciferase reporter gene assay
Format: cell-based

- EC50: 650 nM
Compound: Fc1ccc(-c2csc3ncnc(NCc4ccc5c(c4)OCO5)c23)cc1
